Where two headings read alike, the source gives them in different places.
How the values were obtained:
Type in all cases: in vivo
Phakopsora pachyrhizi = Phakopsora pachyrhizi test in soybean (preventive, glasshouse); conditions: single compound; for pest or weed control at 0.0001 ppm / pest or weed control at 0.001 ppm / pest or weed control at 0.01 ppm / pest or weed control at 0.05 ppm / pest or weed control at 0.1 ppm: Phakopsora pachyrhizi, read-out: Observed Efficacy (%)
Pyricularia oryzae = assay: whole plant or invertebrate; conditions: for Observed Efficacy: single compound, preventive spray, rice; for pest or weed control at 1 ppm / pest or weed control at 5 ppm / pest or weed control at 20 ppm / pest or weed control at 0.05 ppm / pest or weed control at 0.1 ppm: Pyricularia oryzae, read-out: Observed Efficacy
Botrytis cinerea = Botrytis cinerea test in tomato (preventive, glasshouse); conditions: single compound; for pest or weed control at 1 ppm: Conc. 1 ppm; for pest or weed control at 1 ppm / pest or weed control at 5 ppm / pest or weed control at 20 ppm / pest or weed control at 0.05 ppm / pest or weed control at 0.1 ppm: read-out: Observed Efficacy (%); for pest or weed control at 5 ppm: Conc. 5 ppm; for pest or weed control at 20 ppm: Conc. 20 ppm; for pest or weed control at 0.05 ppm: Conc. 0.05 ppm
Septoria nodorum = assay: Parastagonospora nodorum/Septoria nodorum/Stagnospora nodorum test in wheat (preventive, glasshouse); conditions: single compound; for pest or weed control at 1 ppm / pest or weed control at 5 ppm / pest or weed control at 20 ppm / pest or weed control at 0.05 ppm / pest or weed control at 0.1 ppm: Parastagonospora nodorum, read-out: Observed Efficacy (%)
Experimental: The single compounds or compound combinations were dissolved in 2% DMSO/Acetone and then mixed with water containing emulsifier to a calibrated spray volume of 50 mL. The spray solutions were poured into spray bottles for further applications.
To test the preventive activity of compounds, healthy young wheat plants, raised in the greenhouse, were sprayed with the single compound or mixture preparation at the stated application rates inside the spray cabinets using hollow cone nozzles. One day after treatment, the plants were inoculated with a suspension containing 2.8×10^6 Stagnospora nodorum inoculum. The inoculated plants were then kept in a greenhouse chamber at 22-25° C. temperature and 90-100% relative humidity for disease expression.
A visual assessment of the performance of the compounds and respective compound combinations was carried out by rating the disease severity (0-100% scale) on treated plants 3, 7 and 10 days after application. Efficacy (% control) of the compounds was calculated by comparing the disease rating in the treatment with the one of the untreated control. The compounds were also assessed for their plant compatibility by recording symptoms like necrosis, chlorosis & stunting. The results are shown for the compound of formula (I-1) to (I-5) in Table E1-E5.

Alternaria solani = Alternaria solani test in tomato (preventive, glasshouse); conditions: for pest or weed control at 1 ppm / pest or weed control at 5 ppm / pest or weed control at 20 ppm / pest or weed control at 0.05 ppm / pest or weed control at 0.1 ppm: Alternaria solani
Erysiphe cichoracearum = Erysiphe cichoracearum test in cucumber (preventive, glasshouse); conditions: single compound; for pest or weed control at 1 ppm / pest or weed control at 5 ppm / pest or weed control at 20 ppm / pest or weed control at 0.05 ppm / pest or weed control at 0.1 ppm: Golovinomyces cichoracearum, read-out: Observed Efficacy (%)
[1] = 0.05 ppm, preventive spray on soybean
[2] = 0.1 ppm, preventive spray on soybean
[3] = Conc. 0.05 ppm, soybean, preventive, Table D4
[4] = Conc. 0.05 ppm, soybean, preventive, Table D5
[5] = Conc. 0.1 ppm, soybean, preventive, Table D4
[6] = Conc. 0.1 ppm, soybean, preventive, Table D5
[7] = Table B3, single compound, Conc. 0.05 ppm, preventive
[8] = Table B3, single compound, Conc. 0.1 ppm, preventive
[9] = single compound, 0.05 ppm, preventive
[10] = single compound, 0.1 ppm, preventive
[11] = 0.1 ppm, preventive spray on cucumber
[12] = Botrytis cinerea, preventive spray on tomato, % control vs untreated
[13] = Table F4, Botrytis cinerea in tomato, preventive
[14] = Table F5, Botrytis cinerea in tomato, preventive
[15] = Botrytis cinerea, Conc. 0.1 ppm, preventive spray on tomato, % control vs untreated
[16] = single compound, 0.05 ppm, preventive spray, read-out: Observed Efficacy (%)
[17] = single compound, 0.1 ppm, preventive spray, read-out: Observed Efficacy (%)
[18] = Table B4, single compound, Conc. 0.1 ppm, preventive
[19] = 0.05 ppm, preventive spray on cucumber

Structure (SMILES): CO/C=C(/C(=O)OC)c1ccccc1Oc1cc(Oc2ccccc2C#N)ncn1 [Azoxystrobin, azoxystrobin]
- Observed Efficacy (%) (Phakopsora pachyrhizi; [1]): 15%
- Observed Efficacy (%) (Phakopsora pachyrhizi; [2]): 22%
- Observed Efficacy (%) (Phakopsora pachyrhizi; [3]): 15%
- Observed Efficacy (%) (Phakopsora pachyrhizi; [4]): 15%
- Observed Efficacy (%) (Phakopsora pachyrhizi; [5]): 22%
- Observed Efficacy (%) (Phakopsora pachyrhizi; [6]): 22%
- Observed Efficacy (Pyricularia oryzae; Conc. 0.05 ppm): 21%
- Observed Efficacy (Pyricularia oryzae; Conc. 0.1 ppm): 26%
- Observed Efficacy (%) (Botrytis cinerea; Conc. 0.1 ppm, preventive spray on tomato, % control vs untreated): 45%
- Observed Efficacy (%) (Septoria nodorum; 0.05 ppm): 42%
- Observed Efficacy (%) (Septoria nodorum; 0.1 ppm): 47%
- Observed Efficacy (%) (Alternaria solani; [7]): 33%
- Observed Efficacy (%) (Alternaria solani; [8]): 49%
- Observed Efficacy (%) (Alternaria solani; [9]): 33%
- Observed Efficacy (%) (Alternaria solani; single compound, 0.05 ppm, preventive spray): 33%
- Observed Efficacy (%) (Alternaria solani; [10]): 49%
- Observed Efficacy (%) (Alternaria solani; single compound, 0.1 ppm, preventive spray): 49%
- Observed Efficacy (Alternaria solani; single compound, Conc. 0.05 ppm, preventive spray): 33%
- Observed Efficacy (Alternaria solani; single compound, Conc. 0.1 ppm, preventive spray): 49%
- Observed Efficacy (%) (Erysiphe cichoracearum; 0.1 ppm, cucumber, preventive): 50%
- Observed Efficacy (%) (Erysiphe cichoracearum; [11]): 50%

Structure (SMILES): CCN(C)C=Nc1cc(Cl)cc(Cc2cccc(C)c2)c1C [Compound (I-1), N′-(5-chloro-2-methyl-3-(3-methylbenzyl)phenyl)-N-ethyl-N-methylformimidamide]
- pest or weed control at 0.0001 ppm (Phakopsora pachyrhizi; 0.0001 ppm, preventive spray on soybean): 40%
- pest or weed control at 0.001 ppm (Phakopsora pachyrhizi; 0.001 ppm, preventive spray on soybean): 50%
- pest or weed control at 0.01 ppm (Phakopsora pachyrhizi; 0.01 ppm, preventive spray on soybean): 62%
- pest or weed control at 1 ppm (Pyricularia oryzae): 17%
- pest or weed control at 5 ppm (Pyricularia oryzae): 27%
- pest or weed control at 20 ppm (Pyricularia oryzae): 37%
- pest or weed control at 1 ppm (Botrytis cinerea; [12]): 20%
- pest or weed control at 5 ppm (Botrytis cinerea; [12]): 27%
- pest or weed control at 20 ppm (Botrytis cinerea; [12]): 47%
- pest or weed control at 1 ppm (Septoria nodorum): 17%
- pest or weed control at 5 ppm (Septoria nodorum): 20%
- pest or weed control at 20 ppm (Septoria nodorum): 43%
- pest or weed control at 1 ppm (Alternaria solani; single compound, Conc. 1 ppm, preventive spray, read-out: Observed Efficacy): 20%
- pest or weed control at 5 ppm (Alternaria solani; single compound, Conc. 5 ppm, preventive spray, read-out: Observed Efficacy): 27%
- pest or weed control at 20 ppm (Alternaria solani; single compound, Conc. 20 ppm, preventive spray, read-out: Observed Efficacy): 40%
- pest or weed control at 1 ppm (Erysiphe cichoracearum; cucumber, preventive): 13%
- pest or weed control at 5 ppm (Erysiphe cichoracearum; cucumber, preventive): 33%
- pest or weed control at 20 ppm (Erysiphe cichoracearum; cucumber, preventive): 57%

Structure (SMILES): CCN(C)C=Nc1cc(C)cc(Cc2cccc(F)c2)c1C [Compound (I-4), N-ethyl-N′-(3-(3-fluorobenzyl)-2,5-dimethylphenyl)-N-methylformimidamide]
- pest or weed control at 0.0001 ppm (Phakopsora pachyrhizi; Conc. 0.0001 ppm, soybean, preventive, Table D4): 43%
- pest or weed control at 0.001 ppm (Phakopsora pachyrhizi; Conc. 0.001 ppm, soybean, preventive, Table D4): 47%
- pest or weed control at 0.01 ppm (Phakopsora pachyrhizi; Conc. 0.01 ppm, soybean, preventive, Table D4): 59%
- pest or weed control at 1 ppm (Pyricularia oryzae): 17%
- pest or weed control at 5 ppm (Pyricularia oryzae): 23%
- pest or weed control at 20 ppm (Pyricularia oryzae): 33%
- pest or weed control at 1 ppm (Botrytis cinerea; [13]): 10%
- pest or weed control at 5 ppm (Botrytis cinerea; [13]): 17%
- pest or weed control at 20 ppm (Botrytis cinerea; [13]): 23%
- pest or weed control at 1 ppm (Septoria nodorum): 20%
- pest or weed control at 5 ppm (Septoria nodorum): 23%
- pest or weed control at 20 ppm (Septoria nodorum): 27%
- pest or weed control at 1 ppm (Alternaria solani; Table B4, single compound, Conc. 1 ppm, preventive, read-out: Observed Efficacy (%)): 20%
- pest or weed control at 5 ppm (Alternaria solani; Table B4, single compound, Conc. 5 ppm, preventive, read-out: Observed Efficacy (%)): 27%
- pest or weed control at 20 ppm (Alternaria solani; Table B4, single compound, Conc. 20 ppm, preventive, read-out: Observed Efficacy (%)): 37%
- pest or weed control at 1 ppm (Erysiphe cichoracearum; preventive spray on cucumber): 33%
- pest or weed control at 5 ppm (Erysiphe cichoracearum; preventive spray on cucumber): 63%

Structure (SMILES): CCN(C)C=Nc1cc(F)cc(Cc2cccc(C)c2)c1C [Compound (I-5), N-ethyl-N′-(5-fluoro-2-methyl-3-(3-methylbenzyl)phenyl)-N-methylformimidamide]
- pest or weed control at 0.0001 ppm (Phakopsora pachyrhizi; Conc. 0.0001 ppm, soybean, preventive, Table D5): 37%
- pest or weed control at 0.001 ppm (Phakopsora pachyrhizi; Conc. 0.001 ppm, soybean, preventive, Table D5): 50%
- pest or weed control at 0.01 ppm (Phakopsora pachyrhizi; Conc. 0.01 ppm, soybean, preventive, Table D5): 61%
- pest or weed control at 1 ppm (Pyricularia oryzae): 23%
- pest or weed control at 5 ppm (Pyricularia oryzae): 37%
- pest or weed control at 20 ppm (Pyricularia oryzae): 47%
- pest or weed control at 1 ppm (Botrytis cinerea; [14]): 53%
- pest or weed control at 5 ppm (Botrytis cinerea; [14]): 63%
- pest or weed control at 20 ppm (Botrytis cinerea; [14]): 73%
- pest or weed control at 1 ppm (Septoria nodorum): 23%
- pest or weed control at 5 ppm (Septoria nodorum): 33%
- pest or weed control at 20 ppm (Septoria nodorum): 40%
- pest or weed control at 1 ppm (Alternaria solani; single compound, 1 ppm, preventive, read-out: Observed Efficacy (%)): 13%
- pest or weed control at 5 ppm (Alternaria solani; single compound, 5 ppm, preventive, read-out: Observed Efficacy (%)): 17%
- pest or weed control at 20 ppm (Alternaria solani; single compound, 20 ppm, preventive, read-out: Observed Efficacy (%)): 27%
- pest or weed control at 1 ppm (Erysiphe cichoracearum; preventive spray on cucumber): 23%
- pest or weed control at 5 ppm (Erysiphe cichoracearum; preventive spray on cucumber): 47%
- pest or weed control at 20 ppm (Erysiphe cichoracearum; preventive spray on cucumber): 77%

Structure (SMILES): N#Cc1sc2c(=O)c3ccccc3c(=O)c=2sc1C#N [Dithianon, dithianon]
- pest or weed control at 0.05 ppm (Phakopsora pachyrhizi; [1]): 15%
- pest or weed control at 0.1 ppm (Phakopsora pachyrhizi; [2]): 24%
- Observed Efficacy (%) (Phakopsora pachyrhizi; [3]): 15%
- Observed Efficacy (%) (Phakopsora pachyrhizi; [4]): 15%
- Observed Efficacy (%) (Phakopsora pachyrhizi; [5]): 24%
- Observed Efficacy (%) (Phakopsora pachyrhizi; [6]): 24%
- pest or weed control at 0.05 ppm (Pyricularia oryzae): 34%
- pest or weed control at 0.1 ppm (Pyricularia oryzae): 42%
- pest or weed control at 0.05 ppm (Botrytis cinerea; [12]): 38%
- pest or weed control at 0.1 ppm (Botrytis cinerea; [15]): 45%
- pest or weed control at 0.05 ppm (Septoria nodorum; 0.05 ppm): 11%
- pest or weed control at 0.1 ppm (Septoria nodorum; 0.1 ppm): 16%
- pest or weed control at 0.05 ppm (Alternaria solani; [16]): 21%
- pest or weed control at 0.1 ppm (Alternaria solani; [17]): 26%
- Observed Efficacy (%) (Alternaria solani; Table B4, single compound, Conc. 0.05 ppm, preventive): 21%
- Observed Efficacy (%) (Alternaria solani; [18]): 26%
- Observed Efficacy (%) (Alternaria solani; [9]): 21%
- Observed Efficacy (%) (Alternaria solani; [10]): 26%
- pest or weed control at 0.05 ppm (Erysiphe cichoracearum; 0.05 ppm, cucumber, preventive): 11%
- pest or weed control at 0.1 ppm (Erysiphe cichoracearum; 0.1 ppm, cucumber, preventive): 18%
- Observed Efficacy (%) (Erysiphe cichoracearum; [19]): 11%
- Observed Efficacy (%) (Erysiphe cichoracearum; [11]): 18%

Structure (SMILES): O=C1c2ccccc2C(=O)N1SC(Cl)(Cl)Cl [Folpet, folpet]
- pest or weed control at 0.05 ppm (Phakopsora pachyrhizi; [1]): 5%
- pest or weed control at 0.1 ppm (Phakopsora pachyrhizi; [2]): 12%
- Observed Efficacy (%) (Phakopsora pachyrhizi; [3]): 5%
- Observed Efficacy (%) (Phakopsora pachyrhizi; [4]): 5%
- Observed Efficacy (%) (Phakopsora pachyrhizi; [5]): 12%
- Observed Efficacy (%) (Phakopsora pachyrhizi; [6]): 12%
- pest or weed control at 0.05 ppm (Pyricularia oryzae): 34%
- pest or weed control at 0.1 ppm (Pyricularia oryzae): 39%
- pest or weed control at 0.05 ppm (Botrytis cinerea; [12]): 24%
- pest or weed control at 0.1 ppm (Botrytis cinerea; [15]): 38%
- pest or weed control at 0.05 ppm (Septoria nodorum; 0.05 ppm): 16%
- pest or weed control at 0.1 ppm (Septoria nodorum; 0.1 ppm): 21%
- pest or weed control at 0.05 ppm (Alternaria solani; [16]): 12%
- pest or weed control at 0.1 ppm (Alternaria solani; [17]): 16%
- pest or weed control at 0.05 ppm (Alternaria solani; single compound, Conc. 0.05 ppm, preventive spray, read-out: Observed Efficacy): 12%
- pest or weed control at 0.1 ppm (Alternaria solani; single compound, Conc. 0.1 ppm, preventive spray, read-out: Observed Efficacy): 16%
- Observed Efficacy (%) (Alternaria solani; [7]): 12%
- Observed Efficacy (%) (Alternaria solani; [8]): 16%
- Observed Efficacy (%) (Alternaria solani; [18]): 16%
- Observed Efficacy (%) (Alternaria solani; [9]): 12%
- Observed Efficacy (%) (Alternaria solani; [10]): 16%
- pest or weed control at 0.05 ppm (Erysiphe cichoracearum; 0.05 ppm, cucumber, preventive): 24%
- pest or weed control at 0.1 ppm (Erysiphe cichoracearum; 0.1 ppm, cucumber, preventive): 32%
- Observed Efficacy (%) (Erysiphe cichoracearum; [19]): 24%
- Observed Efficacy (%) (Erysiphe cichoracearum; [11]): 32%

Source: US20230413824A1, “AGROCHEMICAL COMPOSITION COMPRISING 3-SUBSTITUTED PHENYLAMIDINE COMPOUNDS AND USE THEREOF” (PI INDUSTRIES LIMITED, priority 2020, published 2023)
